Data: ChEMBL document CHEMBL1250443, “Microarray-based method for monitoring yeast overexpression strains reveals small-molecule targets in TOR pathway” (Nat Chem Biol, 2006)

Columns and labels:
Saccharomyces cerevisiae [1] = experiment: Increase of GUF1 gene expression in wild-type Saccharomyces cerevisiae transformed with overexpression plasmids by microarray; format: functional
Saccharomyces cerevisiae [2] = experiment: Increase of FMP38 gene expression in wild-type Saccharomyces cerevisiae transformed with overexpression plasmids by microarray; format: functional
Saccharomyces cerevisiae [3] = experiment: Increase of HMI1 gene expression in wild-type Saccharomyces cerevisiae transformed with overexpression plasmids by microarray; format: functional
Saccharomyces cerevisiae [4] = experiment: Increase of YRR1 gene expression in wild-type Saccharomyces cerevisiae transformed with overexpression plasmids by microarray; format: functional
Saccharomyces cerevisiae [5] = experiment: Increase of YDR514C gene expression in wild-type Saccharomyces cerevisiae transformed with overexpression plasmids by microarray; format: functional
Saccharomyces cerevisiae [6] = experiment: Increase of SUV3 gene expression in wild-type Saccharomyces cerevisiae transformed with overexpression plasmids by microarray; format: functional
Saccharomyces cerevisiae [7] = experiment: Increase of PET111 gene expression in wild-type Saccharomyces cerevisiae transformed with overexpression plasmids by microarray; format: functional
Saccharomyces cerevisiae [8] = experiment: Increase of MDL1 gene expression in wild-type Saccharomyces cerevisiae transformed with overexpression plasmids by microarray; format: functional
Saccharomyces cerevisiae [9] = experiment: Increase of MRPS28 gene expression in wild-type Saccharomyces cerevisiae transformed with overexpression plasmids by microarray; format: functional
Saccharomyces cerevisiae [10] = experiment: Increase of MAM1 gene expression in wild-type Saccharomyces cerevisiae transformed with overexpression plasmids by microarray; format: functional
Saccharomyces cerevisiae [11] = experiment: Decrease of FET4 gene expression in wild-type Saccharomyces cerevisiae transformed with overexpression plasmids by microarray; format: functional
Saccharomyces cerevisiae [12] = experiment: Decrease of RIM11 gene expression in wild-type Saccharomyces cerevisiae transformed with overexpression plasmids by microarray; format: functional
Saccharomyces cerevisiae [13] = experiment: Decrease of HOS1 gene expression in wild-type Saccharomyces cerevisiae transformed with overexpression plasmids by microarray; format: functional
Saccharomyces cerevisiae [14] = experiment: Decrease of YDR222W gene expression in wild-type Saccharomyces cerevisiae transformed with overexpression plasmids by microarray; format: functional
Saccharomyces cerevisiae [15] = experiment: Decrease of YKR75C gene expression in wild-type Saccharomyces cerevisiae transformed with overexpression plasmids by microarray; format: functional
Saccharomyces cerevisiae [16] = experiment: Decrease of YJL051W gene expression in wild-type Saccharomyces cerevisiae transformed with overexpression plasmids by microarray; format: functional
Saccharomyces cerevisiae [17] = experiment: Decrease of SGN1 gene expression in wild-type Saccharomyces cerevisiae transformed with overexpression plasmids by microarray; format: functional
Saccharomyces cerevisiae [18] = experiment: Decrease of YMD8 gene expression in wild-type Saccharomyces cerevisiae transformed with overexpression plasmids by microarray; format: functional
[19] = biological target: T1, Translation factor GUF1, mitochondrial (Saccharomyces cerevisiae S288c, UniProt P46943); experiment: Inhibition of yeast Guf1
T1 sequence (P46943 whole entry): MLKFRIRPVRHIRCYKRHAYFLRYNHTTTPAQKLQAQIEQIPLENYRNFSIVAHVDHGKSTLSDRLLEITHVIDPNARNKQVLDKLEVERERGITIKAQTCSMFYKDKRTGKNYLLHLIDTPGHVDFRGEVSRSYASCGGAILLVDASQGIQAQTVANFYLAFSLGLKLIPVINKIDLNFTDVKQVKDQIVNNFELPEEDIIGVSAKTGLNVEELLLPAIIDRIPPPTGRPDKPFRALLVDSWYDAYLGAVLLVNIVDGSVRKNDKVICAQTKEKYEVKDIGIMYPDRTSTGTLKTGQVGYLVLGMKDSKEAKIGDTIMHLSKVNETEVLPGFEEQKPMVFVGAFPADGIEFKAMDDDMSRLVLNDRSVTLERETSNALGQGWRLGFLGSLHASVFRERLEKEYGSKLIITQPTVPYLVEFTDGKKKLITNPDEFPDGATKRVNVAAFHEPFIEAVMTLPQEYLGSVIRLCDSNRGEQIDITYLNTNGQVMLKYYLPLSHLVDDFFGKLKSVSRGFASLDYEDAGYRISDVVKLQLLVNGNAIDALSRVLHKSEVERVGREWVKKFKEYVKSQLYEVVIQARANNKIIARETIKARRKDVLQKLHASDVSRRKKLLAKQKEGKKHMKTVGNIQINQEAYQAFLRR

Compound: O=C1C(Nc2ccccc2)=CC(=O)c2ncccc21
- fold change (FC) (Saccharomyces cerevisiae [1]): 5
- fold change (FC) (Saccharomyces cerevisiae [2]): 3.1
- fold change (FC) (Saccharomyces cerevisiae [3]): 2.9
- fold change (FC) (Saccharomyces cerevisiae [4]): 2.8
- fold change (FC) (Saccharomyces cerevisiae [5]): 2.7
- fold change (FC) (Saccharomyces cerevisiae [6]): 2.4
- fold change (FC) (Saccharomyces cerevisiae [7]): 2.3
- fold change (FC) (Saccharomyces cerevisiae [8]): 2.2
- fold change (FC) (Saccharomyces cerevisiae [9]): 2.1
- fold change (FC) (Saccharomyces cerevisiae [10]): 2.1
- fold change (FC) (Saccharomyces cerevisiae [11]): -4.3
- fold change (FC) (Saccharomyces cerevisiae [12]): -3.3
- fold change (FC) (Saccharomyces cerevisiae [13]): -2.4
- fold change (FC) (Saccharomyces cerevisiae [14]): -2.4
- fold change (FC) (Saccharomyces cerevisiae [15]): -2.1
- fold change (FC) (Saccharomyces cerevisiae [16]): -2.1
- fold change (FC) (Saccharomyces cerevisiae [17]): -2.1
- fold change (FC) (Saccharomyces cerevisiae [18]): -2
- IC50 [19]: 300 µM
